According to patent publication US10472341B2, “Bicyclic tetrahydrothiazepine derivatives useful for the treatment of neoplastic and/or infectious diseases” (APEIRON BIOLOGICS AG, priority 2015, dated 2019):
Structures can show the parent of a compound that is named as a salt.

Test system: Splenocytes of BL6 mice
Test: Murine splenocytes stimulated with anti-CD3 and anti-CD28 antibodies: IL-2, CD25 on CD4 and CD8 T cells
Type: cell-based, mouse
Conditions: for production of cytokine: murine splenocytes stimulated with anti-CD3 and anti-CD28; for enhancement of cytokine production: unstimulated murine splenocytes

Structure (SMILES) | CD25+ CD4 T cells (aCD3/28 stim, 0.3 μM) [% gated] | CD25+ CD8 T cells (aCD3/28 stim, 0.3 μM) [% gated] | IL-2 production (aCD3/28 stim, 0.3 μM) [ng/mL] | CD25+ CD4 T cells (aCD3/28 stim, 1 μM) [% gated] | CD25+ CD8 T cells (aCD3/28 stim, 1 μM) [% gated] | IL-2 production (aCD3/28 stim, 1 μM) [ng/mL] | CD25+ CD4 T cells (aCD3/28 stim, 3 μM) [% gated] | CD25+ CD8 T cells (aCD3/28 stim, 3 μM) [% gated] | IL-2 production (aCD3/28 stim, 3 μM) [ng/mL] | CD25+ CD4 T cells (aCD3/28 stim, 10 μM) [% gated] | CD25+ CD8 T cells (aCD3/28 stim, 10 μM) [% gated] | IL-2 production (aCD3/28 stim, 10 μM) [ng/mL] | CD25+ CD4 T cells (aCD3/28 stim, 30 μM) [% gated] | CD25+ CD8 T cells (aCD3/28 stim, 30 μM) [% gated] | IL-2 production (aCD3/28 stim, 30 μM) [ng/mL] | production of cytokine | CD25+ CD4 T cells (unstim, 0.3 μM) [% gated] | CD25+ CD8 T cells (unstim, 0.3 μM) [% gated] | IL-2 production (unstim, 0.3 μM) [ng/mL] | CD25+ CD4 T cells (unstim, 1 μM) [% gated] | further results
N[C@H]1CS(=O)(=O)c2cc(F)c(C(=O)NC3CC3(F)F)cc2N(Cc2ccc(Cl)cc2)C1=O (stereo partly drawn) [Example 1, (3R)-3-amino-5-[(4-chlorophenyl)methyl]-N-(2,2-difluorocyclopropyl)-8-fluoro-1,1,4-trioxo-2,3,4,5-tetrahydro-1λ^6,5-benzothiazepine-7-carboxamide hydrochloride] | 7.48 | 5.86 | 0.29 | 7.42 | 7.17 | 0.45 | 9.19 | 10.90 | 0.61 | 12.15 | 15.76 | 1.46 | 12.01 | 16.51 | 1.71 | strongly enhanced production of cytokine | 0.50 | 0.61 | 0.00 | 0.50 | CD25+ CD8 T cells (unstim, 1 μM): 0.65 % gated; IL-2 production (unstim, 1 μM): 0.00 ng/mL; CD25+ CD4 T cells (unstim, 3 μM): 0.42 % gated; CD25+ CD8 T cells (unstim, 3 μM): 0.61 % gated; IL-2 production (unstim, 3 μM): 0.00 ng/mL; CD25+ CD4 T cells (unstim, 10 μM): 0.41 % gated; CD25+ CD8 T cells (unstim, 10 μM): 0.62 % gated; IL-2 production (unstim, 10 μM): 0.00 ng/mL; CD25+ CD4 T cells (unstim, 30 μM): 0.38 % gated; CD25+ CD8 T cells (unstim, 30 μM): 0.56 % gated; IL-2 production (unstim, 30 μM): 0.00 ng/mL; enhancement of cytokine production: such effect was not detected on unstimulated cells
Cl.N[C@H]1CS(=O)(=O)c2cc(F)c(C(=O)NCCCC(F)(F)F)cc2N(Cc2ccc(Cl)cc2)C1=O [Example 70, (3R)-3-amino-5-[(4-chlorophenyl)methyl]-8-fluoro-1,1,4-trioxo-N-(4,4,4-trifluoro-butyl)-2,3,4,5-tetrahydro-1λ^6,5-benzothiazepine-7-carboxamide hydrochloride] | 8.10 | 10.10 | 0.77 | 9.28 | 10.41 | 0.91 | 11.88 | 14.58 | 1.54 | 13.41 | 16.68 | 1.90 | 11.94 | 17.50 | 1.71 | strongly enhanced production of cytokine | 0.55 | 0.61 | 0.00 | 0.45 | CD25+ CD8 T cells (unstim, 1 μM): 0.65 % gated; IL-2 production (unstim, 1 μM): 0.00 ng/mL; CD25+ CD4 T cells (unstim, 3 μM): 0.48 % gated; CD25+ CD8 T cells (unstim, 3 μM): 0.60 % gated; IL-2 production (unstim, 3 μM): 0.00 ng/mL; CD25+ CD4 T cells (unstim, 10 μM): 0.45 % gated; CD25+ CD8 T cells (unstim, 10 μM): 0.60 % gated; IL-2 production (unstim, 10 μM): 0.00 ng/mL; CD25+ CD4 T cells (unstim, 30 μM): 0.47 % gated; CD25+ CD8 T cells (unstim, 30 μM): 0.64 % gated; IL-2 production (unstim, 30 μM): 0.00 ng/mL; enhancement of cytokine production: such effect was not detected on unstimulated cells
